Assay results taken from ChEMBL document CHEMBL1201862, “PubChem BioAssay data set” (2004).
Activity calls are given as the source filed them.

Tests used:
Assay type in all cases: functional
[1] = biological target: Serine/threonine-protein kinase pim-1 (Homo sapiens, UniProt P11309)
[2] = biological target: Tyrosine-protein kinase receptor TYRO3 (Homo sapiens, UniProt Q06418);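 also: TYRO3 value obtained as one member of a kinome-wide profiling panel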
[3] = biological target: Vascular endothelial growth factor receptor 2 (Homo sapiens, UniProt P35968)
[4] = biological target: Dual specificity tyrosine-phosphorylation-regulated kinase 1B (Homo sapiens, UniProt Q9Y463); test: Navigating the Kinome. Panel member name: DYRK1B
[5] = biological target: Calcium/calmodulin-dependent protein kinase type II subunit alpha (Homo sapiens, UniProt Q9UQM7); test: Navigating the Kinome. Panel member name: CAMK2A
[6] = biological target: Mitogen-activated protein kinase kinase kinase kinase 4 (Homo sapiens, UniProt O95819)
[7] = biological target: Dual specificity protein kinase CLK4 (Homo sapiens, UniProt Q9HAZ1)
[8] = biological target: Dual specificity mitogen-activated protein kinase kinase 1 (Homo sapiens, UniProt Q02750); test: Navigating the Kinome. Panel member name: MAP2K1
[9] = biological target: Serine/threonine-protein kinase D3 (Homo sapiens, UniProt O94806);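 also: determined within a kinase panel screen, with PRKCN as the panel member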
[10] = biological target: 5'-AMP-activated protein kinase catalytic subunit alpha-1 (Homo sapiens, UniProt Q13131)
[11] = biological target: Proto-oncogene tyrosine-protein kinase receptor Ret (Homo sapiens, UniProt P07949);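 also: measured within a kinome-wide profiling panel, RET as the panel member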
[12] = biological target: cAMP-dependent protein kinase catalytic subunit alpha (Homo sapiens, UniProt P17612)
[13] = biological target: Casein kinase I isoform alpha (Homo sapiens, UniProt P48729)
[14] = biological target: Tyrosine-protein kinase ABL1 (Homo sapiens, UniProt P00519)
[15] = biological target: Cyclin-dependent kinase 9 (Homo sapiens, UniProt P50750);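 also: value from the CDK9 entry of a kinome-spanning kinase panel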
[16] = biological target: Cyclin-dependent kinase 8 (Homo sapiens, UniProt P49336); test: Navigating the Kinome. Panel member name: CDK8
[17] = biological target: Cyclin-dependent kinase 19 (Homo sapiens, UniProt Q9BWU1); test: Navigating the Kinome. Panel member name: CDC2L6
[18] = biological target: T1, Glycogen synthase kinase-3 beta (Homo sapiens, UniProt P49841);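 also: value comes from a broad kinome profiling panel, with GSK3B as the panel member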
[19] = biological target: ALK tyrosine kinase receptor (Homo sapiens, UniProt Q9UM73);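 also: ALK tested as one member of a kinase panel screen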
[20] = biological target: Serine/threonine-protein kinase TBK1 (Homo sapiens, UniProt Q9UHD2); test: Navigating the Kinome. Panel member name: TBK1
[21] = biological target: Vascular endothelial growth factor receptor 1 (Homo sapiens, UniProt P17948);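 also: measured within a kinome-wide profiling panel, FLT1 as the panel member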
[22] = biological target: T2, Glycogen synthase kinase-3 alpha (Homo sapiens, UniProt P49840);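 also: GSK3A result taken from a broad kinome-wide kinase panel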
[23] = biological target: Protein kinase C theta type (Homo sapiens, UniProt Q04759); test: Navigating the Kinome. Panel member name: PRKCQ
[24] = biological target: LIM domain kinase 1 (Homo sapiens, UniProt P53667); test: Navigating the Kinome. Panel member name: LIMK1
[25] = biological target: Dual specificity tyrosine-phosphorylation-regulated kinase 1A (Homo sapiens, UniProt Q13627);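 also: measured against DYRK1A as one member of a broad kinome profiling panel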
[26] = biological target: Serine/threonine-protein kinase PAK 4 (Homo sapiens, UniProt O96013);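 also: value obtained within a kinome profiling panel in which PAK4 was one of the panel members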
[27] = biological target: Dual specificity protein kinase CLK2 (Homo sapiens, UniProt P49760)
[28] = biological target: Activin receptor type-1 (Homo sapiens, UniProt Q04771); test: Navigating the Kinome. Panel member name: ACVR1
[29] = biological target: Focal adhesion kinase 1 (Homo sapiens, UniProt Q05397);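 also: measured as one member of a kinome panel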
[30] = biological target: cAMP-dependent protein kinase catalytic subunit PRKX (Homo sapiens, UniProt P51817)
[31] = biological target: Macrophage-stimulating protein receptor (Homo sapiens, UniProt Q04912); test: Navigating the Kinome. Panel member name: MST1R
[32] = biological target: Cyclin-dependent kinase 7 (Homo sapiens, UniProt P50613);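 also: value comes from a kinome-wide kinase profiling panel in which CDK7 is one member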
[33] = biological target: Leukocyte tyrosine kinase receptor (Homo sapiens, UniProt P29376); test: Navigating the Kinome. Panel member name: LTK
[34] = biological target: Leucine-rich repeat serine/threonine-protein kinase 2 (Homo sapiens, UniProt Q5S007);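 also: value from a broad kinome-wide panel profiling study in which LRRK2 was one of the kinases tested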
[35] = biological target: Aurora kinase B (Homo sapiens, UniProt Q96GD4)
[36] = biological target: Rho-associated protein kinase 1 (Homo sapiens, UniProt Q13464);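 also: measured within a broad kinome-wide panel profiling many kinases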
[37] = biological target: Serine/threonine-protein kinase Chk1 (Homo sapiens, UniProt O14757);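 also: measured as one member of a kinome-wide kinase profiling panel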
[38] = biological target: Fibroblast growth factor receptor 1 (Homo sapiens, UniProt P11362)
[39] = biological target: Ribosomal protein S6 kinase alpha-3 (Homo sapiens, UniProt P51812);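 also: measured within a kinome-wide profiling panel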
[40] = biological target: Macrophage colony-stimulating factor 1 receptor (Homo sapiens, UniProt P07333);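 also: value comes from the Navigating the Kinome screening panel, CSF1R member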
[41] = biological target: Aurora kinase A (Homo sapiens, UniProt O14965);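 also: value from the Navigating the Kinome kinase panel profiling, panel entry STK6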
[42] = biological target: Death-associated protein kinase 3 (Homo sapiens, UniProt O43293);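 also: measured as one member of a kinome-wide profiling panel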
[43] = biological target: Mitogen-activated protein kinase 8 (Homo sapiens, UniProt P45983);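 also: value comes from one member of a kinome-wide kinase profiling panel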
[44] = biological target: Mitogen-activated protein kinase kinase kinase kinase 2 (Homo sapiens, UniProt Q12851);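 also: measured as one member of a kinome-wide kinase panel, with MAP4K2 as the panel entry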
[45] = biological target: Melanin-concentrating hormone receptor 1 (Homo sapiens, UniProt Q99705); test: Late-stage fluorescence-based counterscreen for antagonists of the G-protein coupled receptor 7 (GPR7): cell-based dose response assay to identify antagonists of the melanin-concentrating hormone receptor 1 (MCHR1) Set 5.
[46] = biological target: T3, Neuropeptides B/W receptor type 1 (Homo sapiens, UniProt P48145); test: GPR7 antagonist potency, late-stage follow-up, cell-based, fluorescence, dose response, set 5 (AID 588566)
T3 sequence (P48145 whole entry): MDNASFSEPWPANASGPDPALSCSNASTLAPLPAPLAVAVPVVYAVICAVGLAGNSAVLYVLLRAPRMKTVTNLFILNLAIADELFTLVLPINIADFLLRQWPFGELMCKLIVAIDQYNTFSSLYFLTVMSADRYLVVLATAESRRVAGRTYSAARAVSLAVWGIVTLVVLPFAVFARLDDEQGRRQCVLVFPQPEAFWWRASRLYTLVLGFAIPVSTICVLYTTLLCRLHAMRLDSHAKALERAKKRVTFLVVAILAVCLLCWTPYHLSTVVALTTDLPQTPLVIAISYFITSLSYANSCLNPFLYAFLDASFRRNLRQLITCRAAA

[47] = biological target: Cyclin-dependent kinase 5/CDK5 activator 1 (Homo sapiens, UniProt Q00535); test: CDK5-p25 kinase inhibition, dose response, selectivity assay for GSK3beta inhibitor project, biochemical, microfluidic mobility shift, dry powder, set 2 (AID 623979)
[48] = biological target: T1, Glycogen synthase kinase-3 beta; test: GSK3beta kinase inhibitors, dose response, biochemical, microfluidics, dry powder samples, set 2 (AID 623989)
[49] = biological target: T2, Glycogen synthase kinase-3 alpha; test: human GSK3 alpha kinase inhibition, dose response, selectivity assay for GSK3beta inhibitor project, biochemical, microfluidics, dry powder samples, set 2 (AID 623978)

T1 sequence (P49841 whole entry): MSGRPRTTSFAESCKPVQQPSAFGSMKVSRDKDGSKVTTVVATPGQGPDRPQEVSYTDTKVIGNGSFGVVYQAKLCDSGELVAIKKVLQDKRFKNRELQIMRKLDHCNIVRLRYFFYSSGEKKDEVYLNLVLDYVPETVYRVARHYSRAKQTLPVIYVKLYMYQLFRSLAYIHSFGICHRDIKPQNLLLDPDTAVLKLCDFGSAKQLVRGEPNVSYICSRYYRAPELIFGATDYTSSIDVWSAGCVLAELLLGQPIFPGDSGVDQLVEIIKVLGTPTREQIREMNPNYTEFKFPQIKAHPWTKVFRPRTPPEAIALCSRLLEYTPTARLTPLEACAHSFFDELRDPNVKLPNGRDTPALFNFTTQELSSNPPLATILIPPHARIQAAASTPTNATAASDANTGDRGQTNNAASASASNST
T2 sequence (P49840 whole entry): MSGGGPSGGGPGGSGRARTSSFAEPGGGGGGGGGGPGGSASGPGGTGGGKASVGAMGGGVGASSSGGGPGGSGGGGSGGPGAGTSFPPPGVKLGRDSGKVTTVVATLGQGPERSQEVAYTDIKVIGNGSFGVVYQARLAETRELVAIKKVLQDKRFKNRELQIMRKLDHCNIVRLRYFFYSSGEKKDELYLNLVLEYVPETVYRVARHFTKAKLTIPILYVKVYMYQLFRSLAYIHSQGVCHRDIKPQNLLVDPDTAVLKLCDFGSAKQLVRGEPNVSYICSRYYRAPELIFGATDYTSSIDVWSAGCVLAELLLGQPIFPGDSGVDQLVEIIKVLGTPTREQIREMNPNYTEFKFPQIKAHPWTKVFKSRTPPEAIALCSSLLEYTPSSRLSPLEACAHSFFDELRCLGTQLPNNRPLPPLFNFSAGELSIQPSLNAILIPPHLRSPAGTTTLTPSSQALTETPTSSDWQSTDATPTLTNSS
Sequence of Cyclin-dependent kinase 8 (P49336 whole entry): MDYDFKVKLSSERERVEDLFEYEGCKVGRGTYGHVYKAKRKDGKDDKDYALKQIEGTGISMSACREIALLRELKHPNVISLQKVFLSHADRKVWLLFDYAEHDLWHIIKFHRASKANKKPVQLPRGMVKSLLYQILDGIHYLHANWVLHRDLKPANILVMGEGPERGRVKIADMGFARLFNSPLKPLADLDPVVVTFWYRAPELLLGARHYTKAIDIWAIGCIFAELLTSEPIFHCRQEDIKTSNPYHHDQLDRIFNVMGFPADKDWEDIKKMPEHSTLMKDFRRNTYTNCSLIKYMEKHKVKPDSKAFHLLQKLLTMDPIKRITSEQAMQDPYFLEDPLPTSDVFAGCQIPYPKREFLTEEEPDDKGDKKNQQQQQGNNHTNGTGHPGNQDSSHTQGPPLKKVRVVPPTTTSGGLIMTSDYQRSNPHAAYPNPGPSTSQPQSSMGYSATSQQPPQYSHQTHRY
Sequence of Leukocyte tyrosine kinase receptor (P29376 whole entry): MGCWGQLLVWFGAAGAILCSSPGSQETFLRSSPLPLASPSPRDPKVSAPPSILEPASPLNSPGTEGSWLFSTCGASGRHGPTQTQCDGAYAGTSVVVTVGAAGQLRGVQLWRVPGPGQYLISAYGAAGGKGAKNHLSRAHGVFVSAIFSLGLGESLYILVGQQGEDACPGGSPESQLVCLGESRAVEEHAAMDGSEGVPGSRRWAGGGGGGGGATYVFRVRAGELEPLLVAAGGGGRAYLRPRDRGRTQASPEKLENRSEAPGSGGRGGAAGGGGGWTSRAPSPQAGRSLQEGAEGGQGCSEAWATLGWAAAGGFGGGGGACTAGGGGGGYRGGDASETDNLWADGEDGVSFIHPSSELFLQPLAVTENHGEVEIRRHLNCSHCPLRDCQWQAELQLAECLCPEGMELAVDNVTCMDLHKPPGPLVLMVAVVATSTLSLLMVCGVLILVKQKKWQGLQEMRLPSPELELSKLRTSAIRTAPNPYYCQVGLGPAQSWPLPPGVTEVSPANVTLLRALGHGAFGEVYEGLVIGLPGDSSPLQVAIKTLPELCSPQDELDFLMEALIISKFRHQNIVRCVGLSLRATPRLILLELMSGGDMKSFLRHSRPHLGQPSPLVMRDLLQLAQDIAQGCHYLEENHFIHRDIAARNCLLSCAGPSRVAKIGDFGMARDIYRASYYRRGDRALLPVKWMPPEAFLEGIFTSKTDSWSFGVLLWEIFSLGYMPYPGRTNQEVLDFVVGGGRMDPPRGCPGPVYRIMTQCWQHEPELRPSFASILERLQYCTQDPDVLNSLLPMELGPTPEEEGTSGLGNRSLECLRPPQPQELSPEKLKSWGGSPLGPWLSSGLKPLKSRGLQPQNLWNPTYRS
Sequence of Calcium/calmodulin-dependent protein kinase type II subunit alpha (Q9UQM7 whole entry): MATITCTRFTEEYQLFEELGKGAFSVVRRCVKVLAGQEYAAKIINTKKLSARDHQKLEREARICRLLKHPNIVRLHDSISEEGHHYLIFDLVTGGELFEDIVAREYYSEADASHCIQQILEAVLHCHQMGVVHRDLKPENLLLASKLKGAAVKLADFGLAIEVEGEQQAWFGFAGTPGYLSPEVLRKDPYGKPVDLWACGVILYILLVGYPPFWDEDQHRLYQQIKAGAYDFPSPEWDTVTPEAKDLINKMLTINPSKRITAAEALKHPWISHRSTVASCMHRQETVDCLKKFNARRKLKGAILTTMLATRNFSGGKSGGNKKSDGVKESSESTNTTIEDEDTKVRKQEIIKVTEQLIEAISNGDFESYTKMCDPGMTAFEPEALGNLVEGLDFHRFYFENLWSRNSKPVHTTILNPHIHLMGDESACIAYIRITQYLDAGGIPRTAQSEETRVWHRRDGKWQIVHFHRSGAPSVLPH
Sequence of Serine/threonine-protein kinase TBK1 (Q9UHD2 whole entry): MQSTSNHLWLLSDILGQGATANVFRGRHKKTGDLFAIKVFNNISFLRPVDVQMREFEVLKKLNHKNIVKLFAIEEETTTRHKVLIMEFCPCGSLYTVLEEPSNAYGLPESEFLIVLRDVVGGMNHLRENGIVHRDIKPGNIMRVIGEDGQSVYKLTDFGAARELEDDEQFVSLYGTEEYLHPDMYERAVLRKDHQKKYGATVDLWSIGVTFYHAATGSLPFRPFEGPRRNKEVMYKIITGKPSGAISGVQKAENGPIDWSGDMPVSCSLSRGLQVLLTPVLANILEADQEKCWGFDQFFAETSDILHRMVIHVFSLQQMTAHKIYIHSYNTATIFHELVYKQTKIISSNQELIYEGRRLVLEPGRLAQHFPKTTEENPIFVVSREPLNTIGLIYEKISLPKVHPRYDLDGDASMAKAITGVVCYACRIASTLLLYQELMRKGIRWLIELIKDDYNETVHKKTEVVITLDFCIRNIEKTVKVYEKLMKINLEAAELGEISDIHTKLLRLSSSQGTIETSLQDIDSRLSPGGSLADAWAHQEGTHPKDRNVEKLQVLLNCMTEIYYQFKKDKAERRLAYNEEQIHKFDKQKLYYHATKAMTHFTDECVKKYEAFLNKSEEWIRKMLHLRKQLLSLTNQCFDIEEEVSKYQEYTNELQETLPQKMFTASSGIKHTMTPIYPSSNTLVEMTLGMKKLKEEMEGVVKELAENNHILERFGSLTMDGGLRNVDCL
Sequence of Serine/threonine-protein kinase PAK 4 (O96013 whole entry): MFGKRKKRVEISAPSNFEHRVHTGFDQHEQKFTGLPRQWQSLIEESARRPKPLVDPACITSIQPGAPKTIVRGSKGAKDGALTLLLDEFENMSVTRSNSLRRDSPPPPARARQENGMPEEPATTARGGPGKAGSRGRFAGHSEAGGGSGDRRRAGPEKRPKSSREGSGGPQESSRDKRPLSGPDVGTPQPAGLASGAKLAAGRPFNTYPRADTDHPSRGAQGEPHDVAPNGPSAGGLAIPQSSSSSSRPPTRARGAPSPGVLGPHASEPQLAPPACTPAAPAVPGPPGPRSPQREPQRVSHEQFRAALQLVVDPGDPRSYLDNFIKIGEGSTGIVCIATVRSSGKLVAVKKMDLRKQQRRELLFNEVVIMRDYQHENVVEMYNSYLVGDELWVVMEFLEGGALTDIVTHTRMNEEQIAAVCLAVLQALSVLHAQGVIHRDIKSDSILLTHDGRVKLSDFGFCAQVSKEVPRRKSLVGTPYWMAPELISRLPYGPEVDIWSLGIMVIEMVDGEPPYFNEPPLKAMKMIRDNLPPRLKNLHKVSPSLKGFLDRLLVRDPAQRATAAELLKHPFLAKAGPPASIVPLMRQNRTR
Sequence of Cyclin-dependent kinase 19 (Q9BWU1 whole entry): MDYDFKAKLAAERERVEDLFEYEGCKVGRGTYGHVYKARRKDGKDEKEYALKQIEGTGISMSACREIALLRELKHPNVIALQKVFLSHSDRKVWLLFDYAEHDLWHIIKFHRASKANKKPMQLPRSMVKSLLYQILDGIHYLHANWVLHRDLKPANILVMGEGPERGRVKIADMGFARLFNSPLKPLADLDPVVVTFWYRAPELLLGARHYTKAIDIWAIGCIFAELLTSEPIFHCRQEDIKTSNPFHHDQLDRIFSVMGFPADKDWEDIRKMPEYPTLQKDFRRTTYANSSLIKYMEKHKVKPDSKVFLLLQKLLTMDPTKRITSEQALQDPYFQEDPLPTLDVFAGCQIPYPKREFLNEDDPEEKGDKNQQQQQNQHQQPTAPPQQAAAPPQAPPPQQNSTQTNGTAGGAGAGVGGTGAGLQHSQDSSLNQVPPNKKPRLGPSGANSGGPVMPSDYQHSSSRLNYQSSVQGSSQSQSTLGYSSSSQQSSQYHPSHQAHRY
Sequence of Aurora kinase A (O14965 whole entry): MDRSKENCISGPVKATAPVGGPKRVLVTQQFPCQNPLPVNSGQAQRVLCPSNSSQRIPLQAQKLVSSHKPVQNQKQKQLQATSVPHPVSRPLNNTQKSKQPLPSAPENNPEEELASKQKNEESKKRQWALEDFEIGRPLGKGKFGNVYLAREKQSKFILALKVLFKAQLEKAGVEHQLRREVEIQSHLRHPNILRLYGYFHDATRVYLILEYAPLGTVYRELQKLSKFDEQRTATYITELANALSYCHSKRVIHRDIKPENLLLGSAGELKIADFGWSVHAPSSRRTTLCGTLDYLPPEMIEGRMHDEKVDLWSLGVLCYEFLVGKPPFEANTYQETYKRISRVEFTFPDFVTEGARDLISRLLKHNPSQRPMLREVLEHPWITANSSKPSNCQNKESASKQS

## NC(=O)c1cc2ccncc2s1
[1]
  Ki: 39.8 µM (active)
[2]
  Ki: 79.4 µM (active)
[3]
  Ki: 7.94 µM (active)
[4]
  Ki: 1.26 µM (active)
[5]
  Ki: 79.4 µM (active)
[6]
  Ki: 25.1 µM (active)
[7]
  Ki: 0.794 µM (active)
[8]
  Ki: 10 µM (active)
[9]
  Ki: 39.8 µM (active)
[10]
  Ki: 31.6 µM (active)
[11]
  Ki: 63.1 µM (active)
[12]
  Ki: 3.98 µM (active)
[13]
  Ki: 1.58 µM (active)
[14]
  Ki: 79.4 µM (active)
[15]
  Ki: 0.501 µM (active)
[16]
  Ki: 0.794 µM (active)
[17]
  Ki: > 100 µM (inactive)
[18]
  Ki: 5.01 µM (active)
[19]
  Ki: 63.1 µM (active)
[20]
  Ki: 79.4 µM (active)
[21]
  Ki: 7.94 µM (active)
[22]
  Ki: 3.98 µM (active)
[23]
  Ki: 3.16 µM (active)
[24]
  Ki: 15.8 µM (active)
[25]
  Ki: 3.16 µM (active)
[26]
  Ki: 79.4 µM (active)
[27]
  Ki: 15.8 µM (active)
[28]
  Ki: 79.4 µM (active)
[29]
  Ki: 100 µM (active)
[30]
  Ki: 15.8 µM (active)
[31]
  Ki: 39.8 µM (active)
[32]
  Ki: 12.6 µM (active)
[33]
  Ki: 12.6 µM (active)
[34]
  Ki: 10 µM (active)
[35]
  Ki: 31.6 µM (active)
[36]
  Ki: 1.58 µM (active)
[37]
  Ki: 12.6 µM (active)
[38]
  Ki: 63.1 µM (active)
[39]
  Ki: 25.1 µM (active)
[40]
  Ki: > 100 µM (inactive)
[41]
  Ki: 63.1 µM (active)
[42]
  Ki: 2.51 µM (active)
[43]
  Ki: 63.1 µM (active)
[44]
  Ki: 10 µM (active)

## COc1cccc(C(C#N)c2c(Cl)cnn(Cc3cccc4ccccc34)c2=O)c1 (centres undefined)
[45]
  IC50: 12.1 µM (inactive)
[46]
  IC50: 0.569 µM (active)

## COc1cc(/C=N/n2c(S)nnc2C2CCCCC2)cc(Br)c1O
[47]
  AC50: 16.8 µM (active)
[48]
  AC50: 0.958 µM (active)
[49]
  AC50: 10.4 µM (active)
